Entries after “also recorded” stand apart in the source; their conditions may differ.
What was measured:
StAR = experiment: Western blot, expression of StAR in MA-10 cells; assay type: cell-based, mouse
Method: (§1) Mouse Leydig cell line (MA-10) was grown in Waymouth media containing 15% horse serum, 5% fetal bovine serum, and 1× gentamycin, which was replaced with […] G418 (geneticin) for VDAC1 knockdown (ΔVDAC1) MA10 cells. Cells were maintained at 37° C. in a humidified incubator under 5% CO2. To isolate mitochondria, cells were removed from tissue culture plates by gentle scrapping in phosphate-buffered saline at room temperature, incubated in hypotonic buffer (10 mM HEPES, pH 7.4) for 30 to 40 min, and mitochondria were isolated following readily available procedures. The mitochondrial preparation was verified by Western blotting with the cytochrome P450 SCC enzyme (Corgen, Tapai, Taiwan) and calnexin antibodies (Santa Cruz Biotechnology, Inc., Santa Cruz, Calif.).
Protein (12.5 μg) was separated by 15% SDS-polyacrylamide gel electrophoresis and transferred to a polyvinylidinedifluoride membrane (Millipore Corporation, Billerica, Mass.). The membrane was blocked with 3% nonfat dry milk for 45 min, probed overnight with the primary antibodies, and then incubated with […] goat anti-rabbit or anti mouse IgG (Thermo Fisher Scientific, Waltham, Mass.). Signals were developed with chemiluminescent reagent (Thermo Fisher Scientific). For loading control of all Western blots, the membrane was stained with β-actin antibody, which was previously independently stained with StAR or 3-β-hydroxysteroid dehydrogenase (3βHSD2) or VDAC1 and VDAC2 antiserum. The band intensity was determined by using Image Quant 5.2 (Phosphorimager; GE Healthcare, Chalfont St. Giles, Buckinghamshire, UK). Densitometric calculation may reflect the ratio of σ1 or VDAC2 and β-actin following an established procedure that is readily available.
The role of KSCM ligands on the expression of StAR in MA-10 cells was evaluated. In all the cases studied, both the 37-kDa unimported and the 30-kDa mitochondrial-imported, mature protein, were observed but not the 32-kDa transient intermediate protein. The same membrane was probed first with StAR antibody and then with β-actin antibody independently. […] Coimmunoprecipitation experiments were performed to determine whether there was a direct interaction between σ1 receptor and StAR or VDAC2. […] StAR is a 37-kDa protein and thus it is higher than the 28-kDa σ1 (FIG. 5A), confirming that StAR interaction with the σ1 receptor.

5HT3 = target: T1, 5HT3 (Homo sapiens, UniProt P46098); experiment: Primary binding assay at non-sigma receptors: 5HT3; conditions: 10 μM (final) assay concentration
T1 construct: expressed in transfected cells
T1 sequence (P46098 24-478): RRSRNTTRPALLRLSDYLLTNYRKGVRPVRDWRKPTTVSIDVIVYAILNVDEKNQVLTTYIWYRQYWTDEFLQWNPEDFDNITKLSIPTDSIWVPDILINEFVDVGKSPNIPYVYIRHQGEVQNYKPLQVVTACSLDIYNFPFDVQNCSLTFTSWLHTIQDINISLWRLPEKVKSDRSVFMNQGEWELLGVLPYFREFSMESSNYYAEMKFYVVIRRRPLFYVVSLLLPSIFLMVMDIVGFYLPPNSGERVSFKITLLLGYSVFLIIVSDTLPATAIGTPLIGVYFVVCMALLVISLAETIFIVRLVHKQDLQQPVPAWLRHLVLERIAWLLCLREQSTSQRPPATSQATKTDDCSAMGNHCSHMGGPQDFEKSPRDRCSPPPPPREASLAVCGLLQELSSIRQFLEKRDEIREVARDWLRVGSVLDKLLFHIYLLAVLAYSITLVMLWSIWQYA
Method: (§2) Initial primary binding screening assays were performed using a 50 μM (initial)−10 μM (final) assay concentration of reference and test compounds.

[1] = Cell viability assay (MTT) in MA-10 cells; assay type: cell-based, mouse; conditions: mouse, MA-10 Leydig cells, read-out: decrease in cell viability
Method: as §1
Stock solutions (1 mM) of the ligands were made in 1× phosphate buffered saline, filter-sterilized, and then further diluted up to 1 μM with serum-free medium. Cell viability was determined by the 3-[4,5-dimethylthiazol-2yl]-2,5-diphenyltetrazolium bromide assay using a commercially available kit following the manufacturer's instructions (Promega, Madison, Wis.). MA-10 cells were plated in a 96-well plate at an initial density of 4×10^3 cells per well for 24 h at 37° C. in 5% CO2 atm. After 24 h of serum starvation, the culture media were changed to serum-free media containing 1, 5, 10, 50, and 100 nM concentration for each KSCM ligand. Next, the cells were incubated for 2 to 3 h with 0.5 mg/ml of 3-[4,5-dimethylthiazol-2yl]-2,5-diphenyltetrazolium bromide reagent and lysed with dimethyl sulfoxide, and the absorbance was measured at 550 nm (FlexStation 3; Molecular Devices, Sunnyvale, Calif.).

M4 = target: T2, M4 (Homo sapiens, UniProt P08173); experiment: Primary binding assay at non-sigma receptors: M4; conditions: 10 μM (final) assay concentration
T2 construct: expressed in transfected cells
T2 sequence (P08173 1-479): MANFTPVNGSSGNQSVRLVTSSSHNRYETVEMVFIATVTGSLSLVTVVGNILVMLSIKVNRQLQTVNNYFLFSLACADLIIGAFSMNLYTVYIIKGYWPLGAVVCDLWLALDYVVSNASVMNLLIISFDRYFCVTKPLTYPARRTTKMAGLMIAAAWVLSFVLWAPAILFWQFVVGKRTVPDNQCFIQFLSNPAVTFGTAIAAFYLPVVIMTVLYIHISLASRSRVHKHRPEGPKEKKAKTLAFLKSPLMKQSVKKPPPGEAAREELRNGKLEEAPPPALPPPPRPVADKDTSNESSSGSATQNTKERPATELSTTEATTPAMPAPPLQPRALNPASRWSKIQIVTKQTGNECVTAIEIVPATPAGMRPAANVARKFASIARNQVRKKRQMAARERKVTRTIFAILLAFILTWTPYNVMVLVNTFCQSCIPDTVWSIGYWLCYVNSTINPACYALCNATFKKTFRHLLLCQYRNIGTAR
Method: as §2

σ2 receptor = target: T3, σ2 receptor (Rattus norvegicus, UniProt Q5U3Y7); experiment: Secondary binding assay, Ki determination at σ2 receptor ([3H]DTG, PC12 cell homogenates); conditions: read-out: σ-2 (Ki)
T3 construct: PC12 cell homogenates for σ2 receptors were added to the wells; endogenous in cells; host or cells: PC12 cell homogenate
T3 sequence (Q5U3Y7 1-176): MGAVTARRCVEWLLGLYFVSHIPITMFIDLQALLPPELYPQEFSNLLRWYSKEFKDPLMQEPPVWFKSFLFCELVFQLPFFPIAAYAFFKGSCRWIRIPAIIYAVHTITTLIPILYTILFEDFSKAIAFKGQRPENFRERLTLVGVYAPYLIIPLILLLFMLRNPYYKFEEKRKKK
Method: Secondary binding assays, Ki determinations were performed by measuring the inhibition of radioligand binding by various concentrations of test and reference compound. […] [^3H]Pentazocine (3 nM) was used as the radioligand for σ1 receptors and [^3H]Ditolyglguanidine (DTG) (1 nM) as the radioligand for σ2 receptors. Aliquots (50 μl) of radioligand were dispensed into the wells of a 96-well plate containing 100 μl of Standard Binding Buffer. Then, duplicate 50-μl aliquots of the test and reference compound dilutions were added. Finally, either crude membrane fractions prepared from rat brain homogenate for σ1 receptors or PC12 cell homogenates for σ2 receptors were added to the wells, and the plates shielded from light to prevent photolysis of light sensitive ligands.
For σ1 receptors, the reactions were incubated at 37° C. for 2.5 h, and for σ2 receptors, the reactions were incubated at room temperature for 2 h. Labeled receptors were harvested by rapid filtration on to Whatman GF/B glass filters pre-soaked with 0.3% polyethyleneimine using 96-well Brandel harvester. Four rapid 500 μl washes are performed with chilled Standard Binding buffer to reduce non-specific binding. Filters were placed in 6-ml scintillation tubes and allowed to dry overnight. EcoScint scintiallation cocktail (National Diagnostics) was added to each tube prior to counting. […] The filter mats were dried, the scintillate melted onto the filters and the radioactivity counted in a Microbeta scintillation counter.
Raw data (dpm) representing total radioligand binding (i.e., specific+nonspecific binding) were plotted as a function of the logarithm of the molar concentration of the competitor (i.e., test or reference compound).

5-HT2A = target: T4, 5-HT2A (Homo sapiens, UniProt P28223); experiment: Primary binding assay at non-sigma receptors: 5-HT2A; conditions: 10 μM (final) assay concentration
T4 construct: expressed in transfected cells
T4 sequence (P28223 whole entry): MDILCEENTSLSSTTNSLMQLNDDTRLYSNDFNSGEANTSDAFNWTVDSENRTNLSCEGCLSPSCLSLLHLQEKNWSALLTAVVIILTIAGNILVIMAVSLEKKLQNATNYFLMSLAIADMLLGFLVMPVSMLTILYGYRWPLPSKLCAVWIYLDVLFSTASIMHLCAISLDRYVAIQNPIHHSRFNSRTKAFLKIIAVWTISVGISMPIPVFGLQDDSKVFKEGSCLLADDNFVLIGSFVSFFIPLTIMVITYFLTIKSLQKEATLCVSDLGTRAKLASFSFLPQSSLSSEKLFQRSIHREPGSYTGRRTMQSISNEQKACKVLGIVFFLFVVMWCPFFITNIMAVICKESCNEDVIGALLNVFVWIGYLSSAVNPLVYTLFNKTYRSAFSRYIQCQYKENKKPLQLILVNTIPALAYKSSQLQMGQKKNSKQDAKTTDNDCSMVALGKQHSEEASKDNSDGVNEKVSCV
Method: as §2

Row | Compound | expression of imported 30-kDa StAR (in words) (StAR) | expression of unimported 37-kDa StAR (in words) (StAR) | inhibition at 10 µM (5HT3) [%] | cytotoxicity at 24 h ([1]; 1-5 nM) [%] | inhibition at 10 µM (M4) [%] | Ki (σ2 receptor) [nM] | inhibition at 10 µM (5-HT2A) [%] | cytotoxicity at 24 h, 1 nM [1] [%] | cytotoxicity at 24 h, 100 nM [1] [%]
1 | COc1ccc2c(C)c(C(=O)N(CCCN3CCCCC3)c3ccccc3)oc2c1 [KSCM-11, 6-Methoxy-3-methyl-N-phenyl-N-(3-(piperidin-1-yl)propyl)benzofuran-2-carboxamide] | unchanged | not and unchanged | 7.3 | 3.3 | 68.4 | 41 | 61.2 |  | 
2 | COc1cc2oc(C(=O)N(CCCN3CCCCC3)c3ccccc3)c(C)c2cc1OC [KSCM-1, 5,6-Dimethoxy-3-methyl-N-phenyl-N-(3-(piperidin-1-yl)propyl)benzofuran-2-carboxamide] | unaffected | increased (and/or stabilized); also recorded: stabilizes the expression of unimported StAR | 64.2 |  | 54.4 | 528 | 76.6 | 3.5 | 16
3 | Cc1c(C(=O)N(CCCN2CCCCC2)c2ccccc2)oc2ccccc12 [KSCM-5, 3-Methyl-N-phenyl-N-(3-(piperidin-1-yl)propyl)benzofuran-2-carboxamide] | unchanged | not and unchanged | 2.9 |  | 43.1 | 16 | 18.1 | 28 | 74

From patent US9532983B2, “Benzofuran compounds, compositions, kits and/or methods thereof” (Savannah State University, priority 2013, dated 2017)
